Ki data for five compounds are collected here from BindingDB's records for doi:10.1074/jbc.M113.529529 (The University of Tokyo, 2014).

Assay in all cases: β-Gal Inhibitory Assay
Common to all, as to details: pH 4.5; 37 °C

The target in test [1] is T1, Beta-galactosidase [24-677] (Human, UniProt P16278).
T1 construct: 24-677
T1 sequence (P16278 whole entry): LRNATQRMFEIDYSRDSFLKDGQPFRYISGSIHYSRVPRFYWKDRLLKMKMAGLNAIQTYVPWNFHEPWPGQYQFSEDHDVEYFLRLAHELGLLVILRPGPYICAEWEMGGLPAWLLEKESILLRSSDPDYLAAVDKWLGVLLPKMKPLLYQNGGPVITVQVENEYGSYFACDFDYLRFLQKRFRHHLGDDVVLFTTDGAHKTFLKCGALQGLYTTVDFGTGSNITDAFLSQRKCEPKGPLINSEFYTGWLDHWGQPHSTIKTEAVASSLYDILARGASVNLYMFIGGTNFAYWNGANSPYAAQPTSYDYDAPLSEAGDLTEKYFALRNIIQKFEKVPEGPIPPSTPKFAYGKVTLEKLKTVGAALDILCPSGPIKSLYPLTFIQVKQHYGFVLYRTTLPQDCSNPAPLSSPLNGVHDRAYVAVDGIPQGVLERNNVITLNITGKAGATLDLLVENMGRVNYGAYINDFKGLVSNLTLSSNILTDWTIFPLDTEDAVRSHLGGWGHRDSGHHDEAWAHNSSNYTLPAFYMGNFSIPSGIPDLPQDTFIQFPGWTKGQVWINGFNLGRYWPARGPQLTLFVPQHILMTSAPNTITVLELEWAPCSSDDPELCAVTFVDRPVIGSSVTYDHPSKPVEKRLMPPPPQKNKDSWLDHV
As to the method: (§1) β-Gal activity was measured by using 4-methylumbelliferyll-β-D-galactopyranoside in buffer B (0.15 M sodium citrate, pH 4.5, and 0.2 M NaCl) as a substrate, and incubating at 37 °C for 6 min.

The target of test [2] is T2, Beta-galactosidase [24-677,R201C] (Human, UniProt P16278, R201C).
T2 construct: 24-677
As to the method: as §1

In test [3] the target is T3, Beta-galactosidase [24-677,I51T] (Human, UniProt P16278, I51T).
T3 construct: 24-677
As to the method: as §1

Molecules are shown by their SMILES.

In general, Ki refers to a dissociation constant, usually derived from enzyme kinetics or from competition with a known ligand. A high value points to weaker binding. As to `CCCC/N=C1\SC[C@@H]2[C@H](O)[C@H](O)[C@@H](O)CN12` [5N,6S-(N'-butyliminomethylidene)-6-thio-1-deoxygalactonojirimycin], the Ki in test [1] was found to be 68.3 µM; in test [2], 53.3 µM; in test [3] it was 68.8 µM.

Turning to `CCCC/N=C1/SCC2[C@H](O)[C@H](O)C(O)[C@@H](O)N12` (stereo partly drawn) [5N,6S-(N'-butyliminomethylidene)-6-thiogalactonojirimycin], the Ki in test [1] was 253 µM; in test [2] it was 320 µM; in test [3], 320 µM.

`OC[C@H]1OC(O)[C@H](O)[C@@H](O)[C@H]1O` (stereo not given in full) [Galactose]: the Ki worked out at 4140 µM in test [1], 5610 µM in test [2] and 4910 µM in test [3].

Regarding `CCCCNC(=S)N1CC(O)[C@@H](O)[C@@H](O)C1CO` (stereo not given in full) [N-(N'-butylthiocarbamoyl)-1-deoxygalactonojirimycin], the Ki in test [1] is 373 µM; in test [2], 388 µM; in test [3], 329 µM.

With `CCCCCCCCN[C@H]1C=C(CO)[C@@H](O)[C@H](O)[C@H]1O` [NOEV], the values for the Ki in test [1], in test [2] and in test [3] were 1.1 µM, 0.94 µM and 1.2 µM, respectively.
